From patent US20210380548A1, “Fused [1,2,4]Thiadiazine Derivatives Which Act as KAT Inhibitors of the MYST Family” (CTxT Pty Limited, priority 2017, published 2021)

Tests used:
[1] = tested on: histone H2A.Z Lysine 7 acetylation (TIP60 mediated) in U2OS cells; assay: H2A.Z Lysine 7 Acetylation Biomarker Assay (384-well, U2OS); assay type: cell-based; conditions: Homo sapiens, serum free medium, 24 hours incubation
Method: Compounds may be tested for their ability to inhibit the histone H2A.Z Lysine 7 acetylation marker (which is TIP60 mediated) in the following assay:
The cell line U2OS was seeded at a density of 3,000 cells per well in 384-well optical quality tissue culture plates in RPMI medium supplemented with 10% foetal bovine serum and 10 mM Hepes. The cells were allowed to adhere for 24 hours under standard culture conditions (37 degree Celsius, 5% CO2). At the end of this period the cells were washed with serum free medium. […] After incubation for 24 hours, the cells were fixed with 4% formaldehyde in PBS for 15 minutes at room temperature, washed with phosphate buffer saline and blocked with blocking buffer containing 0.2% TritonX100 and 2% BSA. Anti-H2A.ZK7ac specific antibody (Abcam) in blocking buffer was added and incubated overnight at 4 degree Celsius. After washing, a secondary antibody labelled with AlexaFluor 488 dye (ThermoFisher) and Hoechst 33342 (1 μg/mL, Life Technologies) were added for 2 hours incubation at room temperature. Plates were washed and read on a PerkinElmer Opera HCS high content imaging platform. Using a Columbus image analysis pipeline, individual nuclei were located by Hoechst 33342 stain and the acetylation level was calculated from the AlexaFluor 488-related intensity in the same area. The resulting mean intensity per cell was converted to percent inhibition relative to controls on the same plate and the data fitted against a four-parameter logistic model to determine the 50% inhibitory concentration (IC50).

MOF-KAT8 [2] = molecular target: T1, MOF-KAT8 (Homo sapiens, UniProt Q9H7Z6); assay: Acetyltransferase biochemical assay (AlphaScreen), KAT8; conditions: Table 4 (MOF-KAT8); 0.4 μM Acetyl coenzyme A, histone H4, 20 nM enzyme
T1 sequence (Q9H7Z6 177-447): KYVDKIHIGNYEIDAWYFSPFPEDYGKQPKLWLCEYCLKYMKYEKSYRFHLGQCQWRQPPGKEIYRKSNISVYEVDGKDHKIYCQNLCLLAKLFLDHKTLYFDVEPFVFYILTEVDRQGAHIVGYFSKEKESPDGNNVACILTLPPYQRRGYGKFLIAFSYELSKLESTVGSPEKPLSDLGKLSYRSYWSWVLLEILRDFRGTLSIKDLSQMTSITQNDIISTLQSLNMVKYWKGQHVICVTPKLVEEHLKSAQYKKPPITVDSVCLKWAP

TIP60-KAT5 = molecular target: T2, TIP60-KAT5 (Homo sapiens, UniProt Q92993); assay: Revised Acetyltransferase Biochemical Assay, KAT5; conditions: 10 nM KAT5, 1 μM AcCoA, 100 nM histone H4, 90 min
T2 construct: encoding amino acid residues 2 to 461 (Uniprot Q92993-2) of human KAT5 isoform; made in house; host or cells: E. coli BL21 DE3
T2 sequence (Q92993 2-461 isoform Q92993-2): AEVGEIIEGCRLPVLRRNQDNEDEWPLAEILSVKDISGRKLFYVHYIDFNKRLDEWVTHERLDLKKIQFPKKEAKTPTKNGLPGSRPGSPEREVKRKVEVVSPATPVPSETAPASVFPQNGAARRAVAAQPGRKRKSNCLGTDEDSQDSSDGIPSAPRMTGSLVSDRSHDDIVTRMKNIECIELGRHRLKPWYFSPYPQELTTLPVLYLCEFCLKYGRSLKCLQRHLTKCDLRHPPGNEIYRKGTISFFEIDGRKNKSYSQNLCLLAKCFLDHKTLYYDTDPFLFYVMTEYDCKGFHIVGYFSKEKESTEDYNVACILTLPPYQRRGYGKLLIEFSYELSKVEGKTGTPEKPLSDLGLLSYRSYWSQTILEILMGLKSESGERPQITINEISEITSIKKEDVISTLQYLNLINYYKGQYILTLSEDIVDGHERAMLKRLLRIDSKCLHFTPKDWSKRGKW

MOF-KAT8 [3] = molecular target: T1, MOF-KAT8; assay: Revised Acetyltransferase Biochemical Assay, KAT8
HBO-KAT7 [4] = molecular target: T3, HBO-KAT7 (Homo sapiens, UniProt O95251); assay: Revised Acetyltransferase Biochemical Assay, KAT7; conditions: Table 9 (HBO-KAT7), 1 μM Acetyl coenzyme A
T3 construct: encoding amino acid residues 325 to 611 (Uniprot 095251-1) of human KAT7; made in house; host or cells: E. coli BL21 DE3 RIL
T3 sequence (O95251 with tags, fused parts or gaps): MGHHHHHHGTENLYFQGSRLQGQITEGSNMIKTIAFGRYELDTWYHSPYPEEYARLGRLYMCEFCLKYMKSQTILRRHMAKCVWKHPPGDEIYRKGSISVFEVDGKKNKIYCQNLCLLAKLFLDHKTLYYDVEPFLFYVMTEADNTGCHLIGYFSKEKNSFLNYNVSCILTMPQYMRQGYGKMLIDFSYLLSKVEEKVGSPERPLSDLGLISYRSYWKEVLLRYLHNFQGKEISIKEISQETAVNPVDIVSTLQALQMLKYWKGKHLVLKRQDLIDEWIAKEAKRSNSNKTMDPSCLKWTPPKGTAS

MOZ-KAT6A = molecular target: T4, MOZ-KAT6A (Homo sapiens, UniProt Q92794, A567V); assay: Revised Acetyltransferase Biochemical Assay, KAT6A; conditions: Table 8 (MOZ-KAT6A), 1 μM Acetyl coenzyme A
T4 construct: encoding amino acid residues 507 to 778 (Uniprot Q92794-1) of human KAT6A; made in house; host or cells: E. coli BL21 DE3
T4 sequence (Q92794 507-778 A567V limits assumed): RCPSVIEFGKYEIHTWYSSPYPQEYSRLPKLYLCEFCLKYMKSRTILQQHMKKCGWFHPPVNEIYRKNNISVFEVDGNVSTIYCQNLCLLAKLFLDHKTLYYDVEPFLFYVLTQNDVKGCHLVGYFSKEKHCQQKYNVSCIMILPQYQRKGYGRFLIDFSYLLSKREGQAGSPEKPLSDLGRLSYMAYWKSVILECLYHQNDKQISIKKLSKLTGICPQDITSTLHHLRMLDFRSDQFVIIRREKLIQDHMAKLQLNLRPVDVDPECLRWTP

[5] = tested on: histone H3 Lysine 14 acetylation (HBO1 mediated) in U2OS cells; assay: Histone H3 Lysine 14 Acetylation Biomarker Assay (384-well, U2OS); assay type: cell-based; conditions: Homo sapiens, serum free medium, 24 hours incubation
Method: Compounds may be tested for their ability to inhibit acetylation of the histone H3 Lysine 14 (which is HBO1 mediated) marker in the following assay:
The cell line U2OS was seeded at a density of 3,000 cells per well in 384-well optical quality tissue culture plates in RPMI medium supplemented with 10% foetal bovine serum and 10 mM Hepes. The cells were allowed to adhere for 24 hours under standard culture conditions (37 degree Celsius, 5% CO2). At the end of this period the cells were washed with serum free medium. Compound dilutions prepared in DMSO were added to the serum free medium, with negative control wells reserved for treatment with DMSO only and 100% inhibition positive controls receiving a potent inhibitor compound (e.g. (Z)-4-fluoro-N-((3-hydroxyphenyl)sulfonyl)-5-methyl-[1,1′-biphenyl]-3-carbohydrazonic acid) at 10 μM concentration. After incubation for 24 hours, the cells were fixed with 4% formaldehyde in PBS for 15 minutes at room temperature, washed with phosphate buffer saline and blocked with blocking buffer containing 0.2% TritonX100 and 2% BSA. Anti-H3K14ac specific antibody (Cell Signalling Technologies) in blocking buffer was added and incubated overnight at 4 degree Celsius. After washing, a secondary antibody labelled with AlexaFluor 488 dye (ThermoFisher) and Hoechst 33342 (1 μg/mL, Life Technologies) were added for 2 hours incubation at room temperature. Plates were washed and read on a
PerkinElmer Opera HCS high content imaging platform. Using a Columbus image analysis pipeline, individual nuclei were located by Hoechst 33342 stain and the acetylation level was calculated from the AlexaFluor 488-related intensity in the same area. The resulting mean intensity per cell was converted to percent inhibition relative to controls on the same plate and the data fitted against a four-parameter logistic model to determine the 50% inhibitory concentration (IC50).

HBO-KAT7 [6] = molecular target: T3, HBO-KAT7; assay: Acetyltransferase biochemical assay (AlphaScreen), KAT7; conditions: Table 3 (HBO-KAT7); 0.4 μM Acetyl coenzyme A, histone H3.1, 40 nM enzyme

IC50 [1] | IC50 (MOF-KAT8 [2]) | IC50 (TIP60-KAT5) | IC50 (MOF-KAT8 [3]) | IC50 (HBO-KAT7 [4]) | IC50 (MOZ-KAT6A) | IC50 [5] | IC50 (HBO-KAT7 [6]) | Structure (SMILES)
10900 nM | 4200 nM | 1540 nM | 34500 nM | 512 nM | 29 nM | 6520 nM | – | O=C(NCC(c1cccc(Cl)c1)c1ncco1)C1=Nc2ccc(Cl)cc2S(=O)(=O)N1 (stereo not shown) [Example 162]
2820 nM | 29600 nM | 781 nM | 34400 nM | 242 nM | 17 nM | 2080 nM | – | O=C(NCC(c1ccc(F)cc1)c1ncco1)C1=Nc2ccc(I)cc2S(=O)(=O)N1 (stereo not shown) [Example 164]
9880 nM | 5140 nM | 412 nM | 43700 nM | 386 nM | 23 nM | 1300 nM | – | Cc1ccc(C(CNC(=O)C2=Nc3ccc(I)cc3S(=O)(=O)N2)c2ncco2)cc1 (stereo not shown) [Example 169]
> 40000 nM | 41700 nM | 1160 nM | > 125000 nM | 785 nM | 24 nM | 10400 nM | – | COCc1nnc(C(CNC(=O)C2=Nc3ccc(I)cc3S(=O)(=O)N2)c2ccccc2)o1 (stereo not shown) [Example 171]
15400 nM | 92900 nM | 5110 nM | 30200 nM | 869 nM | 76 nM | 4430 nM | 207 nM | COc1cccc(C(CNC(=O)C2=Nc3ccc(Cl)cc3S(=O)(=O)N2)c2ncco2)c1 (stereo not shown) [Example 176, 7-chloro-N-(2-(3-methoxyphenyl)-2-(oxazol-2-yl)ethyl)-2H-benzo[e][1,2,4]thiadiazine-3-carboxamide 1,1-dioxide]
5460 nM | 22800 nM | 242 nM | 14100 nM | 115 nM | 15 nM | 491 nM | – | COc1cccc(C(CNC(=O)C2=Nc3ccc(I)cc3S(=O)(=O)N2)c2ncco2)c1 (stereo not shown) [Example 187, 7-iodo-N-(2-(3-methoxyphenyl)-2-(oxazol-2-yl)ethyl)-2H-benzo[e][1,2,4]thiadiazine-3-carboxamide 1,1-dioxide]
> 40000 nM | 7960 nM | 2850 nM | 28700 nM | 214 nM | 75 nM | > 20000 nM | – | Nc1nnc(C(CNC(=O)C2=Nc3ccc(I)cc3S(=O)(=O)N2)c2ccccc2)o1 (stereo not shown) [Example 189]
31100 nM | 48900 nM | 303 nM | 68400 nM | 414 nM | 8 nM | 4950 nM | – | O=C(NCCc1ccccc1-n1ncc(CO)n1)C1=Nc2ccc(I)cc2S(=O)(=O)N1 [Example 190, N-(2-(4-(hydroxymethyl)-2H-1,2,3-triazol-2-yl)phenethyl)-7-iodo-2H-benzo[e][1,2,4]thiadiazine-3-carboxamide 1,1-dioxide]
8780 nM | 7060 nM | 70 nM | 20100 nM | 50 nM | 9 nM | 3600 nM | – | O=C(NCC(c1cccc(O)c1)c1ncco1)C1=Nc2ccc(Br)cc2S(=O)(=O)N1 (stereo not shown) [Example 214, 7-Bromo-N-(2-(3-hydroxyphenyl)-2-(oxazol-2-yl)ethyl)-2H-benzo[e][1,2,4]thiadiazine-3-carboxamide 1,1-dioxide]
32100 nM | 22500 nM | 1460 nM | – | 1190 nM | 265 nM | 1290 nM | 1740 nM | O=C(NCC(c1cccc(OCC2CC2)c1)c1ncco1)C1=Nc2ccc(I)cc2S(=O)(=O)N1 (stereo not shown) [Example 217, N-(2-(3-(Cyclopropylmethoxy)phenyl)-2-(oxazol-2-yl)ethyl)-7-iodo-2H-benzo[e][1,2,4]thiadiazine-3-carboxamide 1,1-dioxide]
> 40000 nM | – | 5120 nM | > 125000 nM | 1460 nM | 447 nM | > 40000 nM | – | O=C(NCC(CO)c1ccccc1)C1=Nc2ccc(Cl)cc2S(=O)(=O)N1 (stereo not shown) [Example 225, 7-Chloro-N-(3-hydroxy-2-phenylpropyl)-2H-benzo[e][1,2,4]thiadiazine-3-carboxamide 1,1-dioxide]
> 40000 nM | – | 3730 nM | > 125000 nM | 1930 nM | 75 nM | 24400 nM | – | COCC(CNC(=O)C1=Nc2ccc(Cl)cc2S(=O)(=O)N1)c1ccccc1 (stereo not shown) [Example 226, 7-Chloro-N-(3-methoxy-2-phenylpropyl)-2H-benzo[e][1,2,4]thiadiazine-3-carboxamide 1,1-dioxide]
5710 nM | 6520 nM | 111 nM | 9660 nM | 92 nM | 7 nM | 3250 nM | – | O=C(NCC(c1ncco1)c1ccccc1O)C1=Nc2ccc(I)cc2S(=O)(=O)N1 (stereo not shown) [Example 228, N-(2-(2-Hydroxyphenyl)-2-(oxazol-2-yl)ethyl)-7-iodo-2H-benzo[e][1,2,4]thiadiazine-3-carboxamide 1,1-dioxide]
3410 nM | 6350 nM | 163 nM | 15300 nM | 121 nM | 10 nM | 498 nM | – | Cc1ccccc1C(CNC(=O)C1=Nc2ccc(I)cc2S(=O)(=O)N1)c1ncco1 (stereo not shown) [Example 237, 7-iodo-N-(2-(oxazol-2-yl)-2-(o-tolyl)ethyl)-2H-benzo[e][1,2,4]thiadiazine-3-carboxamide 1,1-dioxide]
– | > 125000 nM | 597 nM | 75600 nM | 686 nM | 17 nM | 19200 nM | – | COCc1cnn(-c2ccccc2CCNC(=O)C2=Nc3ccc(I)cc3S(=O)(=O)N2)n1 [Example 239, 7-iodo-N-(2-(4-(methoxymethyl)-2H-1,2,3-triazol-2-yl)phenethyl)-2H-benzo[e][1,2,4]thiadiazine-3-carboxamide 1,1-dioxide]
11200 nM | – | 309 nM | 62600 nM | 134 nM | 21 nM | 3320 nM | – | O=C(NCCc1ccccc1-n1cccn1)C1=Nc2ccc(I)cc2S(=O)(=O)N1 [Example 240, N-(2-(1H-pyrazol-1-yl)phenethyl)-7-iodo-2H-benzo[e][1,2,4]thiadiazine-3-carboxamide 1,1-dioxide]
